Measurements: US8952024B2, “Herbicidal pyrimidone derivatives” (E I du Pont de Nemours and Company, priority 2009, dated 2015)
Where two headings read alike, the source gives them in different places.

How the values were obtained:
Experiment in all cases: Test B pre-/postemergence plant response
Assay type in all cases: in vivo
[1] = system: morningglory (Ipomoea coccinea); details: for pest or weed control at 125 g/ha: 125 g ai/ha
Method in brief: (§1)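 Visually scored on a 0 to 100 scale after 13 to 15 days in greenhouse versus controls. Treatments were preemergence on seeded loam/sand soil and postemergence on 1- to 4-leaf plants.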

soybean (Glycine max) = details: for plant injury at 31 g/ha: 31 g ai/ha; for plant injury at 62 g/ha: 62 g ai/ha; for plant injury at 125 g/ha: 125 g ai/ha
Method in brief: as §1

[2] = system: velvetleaf (Abutilon theophrasti); details: for pest or weed control at 31 g/ha: 31 g ai/ha; for pest or weed control at 62 g/ha: 62 g ai/ha; for pest or weed control at 125 g/ha: 125 g ai/ha
Method in brief: as §1

[3] = system: wheat (Triticum aestivum); details: for plant injury at 31 g/ha: 31 g ai/ha; for plant injury at 62 g/ha: 62 g ai/ha; for plant injury at 125 g/ha: 125 g ai/ha
Method in brief: as §1

[4] = system: woolly cupgrass (Eriochloa villosa); details: for pest or weed control at 31 g/ha: 31 g ai/ha; for pest or weed control at 62 g/ha: 62 g ai/ha; for pest or weed control at 125 g/ha: 125 g ai/ha
Method in brief: as §1

[5] = system: yellow nutsedge (Cyperus esculentus); details: for pest or weed control at 31 g/ha: 31 g ai/ha; for pest or weed control at 62 g/ha: 62 g ai/ha; for pest or weed control at 125 g/ha: 125 g ai/ha
Method in brief: as §1

[6] = Preemergence, 250 g ai/ha, 0 to 100 scale
[7] = Glycine max, pre-emergence, Preemergence, scale 0 to 100 (0 no effect, 100 complete control), read-out: Plant response rating, Soybean
[8] = Abutilon theophrasti, pre-emergence, 360 h, Preemergence, scale 0 to 100 (0 no effect, 100 complete control), read-out: Plant response rating, Velvetleaf
[9] = Triticum aestivum, pre-emergence, Preemergence, scale 0 to 100 (0 no effect, 100 complete control), read-out: Plant response rating, Wheat
[10] = Eriochloa villosa, pre-emergence, Preemergence, scale 0 to 100 (0 no effect, 100 complete control), read-out: Plant response rating, Cupgrass, Woolly
[11] = Cyperus, pre-emergence, Preemergence, scale 0 to 100 (0 no effect, 100 complete control), read-out: Plant response rating, Nutsedge, Yellow

COCCn1c(-c2cc(F)cc(F)c2)ncc(C(=O)C2=C(O)C3CCC(C3)C2=O)c1=O (stereo not drawn) [Compound 243, 2-(3,5-difluorophenyl)-5-[(2-hydroxy-4-oxobicyclo[3.2.1]oct-2-en-3-yl)carbonyl]-3-(2-methoxyethyl)-4(3H)-pyrimidinone]
75%: plant injury at 62 g/ha (soybean (Glycine max); [7]) | pest or weed control at 31 g/ha [4, 10]
98%: pest or weed control at 125 g/ha ([1]; Ipomoea, pre-emergence, Preemergence, scale 0 to 100, 0 no effect, 100 complete control, read-out: Plant response rating, Morningglory) | plant injury at 62 g/ha (soybean (Glycine max); Glycine max, post-emergence, Postemergence, scale 0 to 100 (0 no effect, 100 complete control), read-out: Plant response rating, Soybean)
40%: plant injury at 62 g/ha [3, 9]
0%: plant injury at 31 g/ha [3, 9]
100: Morningglory plant response rating [1, 6] | Velvetleaf plant response rating [2, 6] | Cupgrass, Woolly plant response rating [4, 6]
90%: pest or weed control at 125 g/ha ([5]; Cyperus, pre-emergence, Preemergence, scale 0 to 100, 0 no effect, 100 complete control, read-out: Plant response rating, Nutsedge, Yellow)
65%: plant injury at 31 g/ha (soybean (Glycine max); [7]) | pest or weed control at 31 g/ha ([5]; Cyperus, post-emergence, Postemergence, 0 to 100 scale (0 no effect, 100 complete control), read-out: Plant response rating, Nutsedge, Yellow) | pest or weed control at 62 g/ha ([5]; Cyperus, post-emergence, Postemergence, scale 0 to 100 (0 no effect, 100 complete control), read-out: Plant response rating, Nutsedge, Yellow) | pest or weed control at 31 g/ha [5, 11]
70%: plant injury at 125 g/ha ([3]; Triticum aestivum, pre-emergence, Preemergence, scale 0 to 100, 0 no effect, 100 complete control, read-out: Plant response rating, Wheat) | pest or weed control at 125 g/ha ([5]; Cyperus, post-emergence, Postemergence, scale 0 (no effect) to 100 (complete control), 13 to 15 days, read-out: Plant response rating, Nutsedge, Yellow)
95%: plant injury at 31 g/ha (soybean (Glycine max); Glycine max, post-emergence, Postemergence, 0 to 100 scale (0 no effect, 100 complete control), read-out: Plant response rating, Soybean) | plant injury at 62 g/ha ([3]; Triticum aestivum, post-emergence, Postemergence, scale 0 to 100 (0 no effect, 100 complete control), read-out: Plant response rating, Wheat) | plant injury at 125 g/ha ([3]; Triticum aestivum, post-emergence, Postemergence, scale 0 (no effect) to 100 (complete control), 13 to 15 days, read-out: Plant response rating, Wheat) | pest or weed control at 31 g/ha ([4]; Eriochloa villosa, post-emergence, Postemergence, 0 to 100 scale (0 no effect, 100 complete control), read-out: Plant response rating, Cupgrass, Woolly) | pest or weed control at 62 g/ha ([4]; Eriochloa villosa, post-emergence, Postemergence, scale 0 to 100 (0 no effect, 100 complete control), read-out: Plant response rating, Cupgrass, Woolly) | pest or weed control at 62 g/ha [4, 10] | pest or weed control at 125 g/ha ([4]; Eriochloa villosa, pre-emergence, Preemergence, scale 0 to 100, 0 no effect, 100 complete control, read-out: Plant response rating, Cupgrass, Woolly)
95: Soybean plant response rating (soybean (Glycine max); [6]) | Nutsedge, Yellow plant response rating [5, 6]
85%: plant injury at 125 g/ha (soybean (Glycine max); Glycine max, pre-emergence, Preemergence, scale 0 to 100, 0 no effect, 100 complete control, read-out: Plant response rating, Soybean) | plant injury at 31 g/ha ([3]; Triticum aestivum, post-emergence, Postemergence, 0 to 100 scale (0 no effect, 100 complete control), read-out: Plant response rating, Wheat) | pest or weed control at 250 g/ha ([5]; Cyperus, post-emergence, Postemergence, 250 g ai/ha, scale 0 to 100 (0 no effect, 100 complete control), 13 to 15 days, read-out: Plant response rating, Nutsedge, Yellow)
100%: pest or weed control at 62 g/ha ([1]; Ipomoea, post-emergence, Postemergence, 62 g ai/ha, scale 0 to 100 (0 no effect, 100 complete control), read-out: Plant response rating, Morningglory) | pest or weed control at 125 g/ha ([1]; Ipomoea, post-emergence, Postemergence, scale 0 (no effect) to 100 (complete control), 13 to 15 days, read-out: Plant response rating, Morningglory) | pest or weed control at 250 g/ha ([1]; Ipomoea, post-emergence, Postemergence, 250 g ai/ha, scale 0 to 100 (0 no effect, 100 complete control), 13 to 15 days, read-out: Plant response rating, Morningglory) | plant injury at 125 g/ha (soybean (Glycine max); Glycine max, post-emergence, Postemergence, scale 0 (no effect) to 100 (complete control), 13 to 15 days, read-out: Plant response rating, Soybean) | plant injury at 250 g/ha (soybean (Glycine max); Glycine max, post-emergence, Postemergence, 250 g ai/ha, scale 0 to 100 (0 no effect, 100 complete control), 13 to 15 days, read-out: Plant response rating, Soybean) | pest or weed control at 31 g/ha ([2]; Abutilon theophrasti, post-emergence, 360 h, Postemergence, 0 to 100 scale (0 no effect, 100 complete control), read-out: Plant response rating, Velvetleaf) | pest or weed control at 62 g/ha ([2]; Abutilon theophrasti, post-emergence, 360 h, Postemergence, scale 0 to 100 (0 no effect, 100 complete control), read-out: Plant response rating, Velvetleaf) | pest or weed control at 125 g/ha ([2]; Abutilon theophrasti, post-emergence, 360 h, Postemergence, scale 0 (no effect) to 100 (complete control), 13 to 15 days, read-out: Plant response rating, Velvetleaf) | pest or weed control at 250 g/ha ([2]; Abutilon theophrasti, post-emergence, 360 h, Postemergence, 250 g ai/ha, scale 0 to 100 (0 no effect, 100 complete control), 13 to 15 days, read-out: Plant response rating, Velvetleaf) | pest or weed control at 31 g/ha [2, 8] | pest or weed control at 62 g/ha [2, 8] | pest or weed control at 125 g/ha ([2]; Abutilon theophrasti, pre-emergence, 360 h, Preemergence, scale 0 to 100, 0 no effect, 100 complete control, read-out: Plant response rating, Velvetleaf) | plant injury at 250 g/ha ([3]; Triticum aestivum, post-emergence, Postemergence, 250 g ai/ha, scale 0 to 100 (0 no effect, 100 complete control), 13 to 15 days, read-out: Plant response rating, Wheat) | pest or weed control at 125 g/ha ([4]; Eriochloa villosa, post-emergence, Postemergence, scale 0 (no effect) to 100 (complete control), 13 to 15 days, read-out: Plant response rating, Cupgrass, Woolly) | pest or weed control at 250 g/ha ([4]; Eriochloa villosa, post-emergence, Postemergence, 250 g ai/ha, scale 0 to 100 (0 no effect, 100 complete control), 13 to 15 days, read-out: Plant response rating, Cupgrass, Woolly)
80%: pest or weed control at 62 g/ha [5, 11]
70: Wheat plant response rating [3, 6]
